Measured values as given in ChEMBL document CHEMBL1201862, “PubChem BioAssay data set” (2004).
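Briefly, cells in 96-well plates were exposed to five compound concentrations for 48 h, and endpoints were estimated by linear interpolation. Abbreviation: GI50, concentration required for 50% inhibition of growth.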 The source made the active and inactive calls. No stated cut-off is given here; in the data, active = GI50 up to about 1.1 µM and inactive = higher.

Experiments:
Assay in all cases: NCI-60 cell line screen, 48 h
OVCAR-8 = tested on: OVCAR-8
SF-268 = tested on: SF-268
K562 = tested on: K562
SN12C = tested on: SN12C
786-0 = tested on: 786-0
M14 = tested on: M14
HOP-92 = tested on: HOP-92
ACHN = tested on: ACHN
KM12 = tested on: KM12
NCI-H23 = tested on: NCI-H23
RXF 393 = tested on: RXF 393
HT-29 = tested on: HT-29
SW-620 = tested on: SW-620
SF-295 = tested on: SF-295
RXF 631 = tested on: RXF 631
NCI-H460 = tested on: NCI-H460
SK-OV-3 = tested on: SK-OV-3
OVCAR-5 = tested on: OVCAR-5
IGROV-1 = tested on: IGROV-1
XF498 = tested on: XF498
HL-60 = tested on: HL-60
EKVX = tested on: EKVX
SNB-75 = tested on: SNB-75
HCC 2998 = tested on: HCC 2998
LOX IMVI = tested on: LOX IMVI
TK-10 = tested on: TK-10
MOLT-4 = tested on: MOLT-4
U-251 = tested on: U-251
SR = tested on: SR
SK-MEL-28 = tested on: SK-MEL-28
RPMI-8226 = tested on: RPMI-8226
M19-MEL = tested on: M19-MEL
OVCAR-4 = tested on: OVCAR-4
NCI-H226 = tested on: NCI-H226
NCI-H522 = tested on: NCI-H522
KM-20L2 = tested on: KM-20L2
LXFL 529 = tested on: LXFL 529
SK-MEL-5 = tested on: SK-MEL-5
COLO 205 = tested on: COLO 205
A498 = tested on: A498
CCRF-CEM = tested on: CCRF-CEM
OVCAR-3 = tested on: OVCAR-3
DLD-1 = tested on: DLD-1
SNB-19 = tested on: SNB-19
SNB-78 = tested on: SNB-78
SF-539 = tested on: SF-539
UACC-257 = tested on: UACC-257
SK-MEL-2 = tested on: SK-MEL-2
A549 = tested on: A549
DMS-114 = tested on: DMS-114
Malme-3M = tested on: Malme-3M
HCT-116 = tested on: HCT-116
UO-31 = tested on: UO-31
DMS-273 = tested on: DMS-273
HCT-15 = tested on: HCT-15
UACC-62 = tested on: UACC-62
HOP-62 = tested on: HOP-62
CAKI-1 = tested on: CAKI-1
HOP-18 = tested on: HOP-18
Hs-578T = tested on: Hs-578T
MDA-N = tested on: MDA-N
MDA-MB-435 = tested on: MDA-MB-435
NCI/ADR-RES = tested on: NCI/ADR-RES
BT-549 = tested on: BT-549
DU-145 = tested on: DU-145
T47D = tested on: T47D
PC-3 = tested on: PC-3
MDA-MB-231 = tested on: MDA-MB-231
MCF7 = tested on: MCF7

## COc1cc(C(=O)N[C@H]2CCc3cc(OC)c(OC)c(OC)c3-c3ccc(SC)c(=O)cc32)cc(OC)c1OC
OVCAR-8
  GI50: 8.13 nM (active)
SF-268
  GI50: 21.8 nM (active)
K562
  GI50: 5.83 nM (active)
SN12C
  GI50: 20.4 nM (active)
786-0
  GI50: 22.3 nM (active)
M14
  GI50: 8.32 nM (active)
HOP-92
  GI50: 60 nM (active)
ACHN
  GI50: 136 nM (active)
KM12
  GI50: 2.5 nM (active)
NCI-H23
  GI50: 5.89 nM (active)
RXF 393
  GI50: 7.52 nM (active)
HT-29
  GI50: 6.41 nM (active)
SW-620
  GI50: 7.41 nM (active)
SF-295
  GI50: 9.62 nM (active)
RXF 631
  GI50: 33.8 nM (active)
NCI-H460
  GI50: 6.15 nM (active)
SK-OV-3
  GI50: 6.55 nM (active)
OVCAR-5
  GI50: 10.7 nM (active)
IGROV-1
  GI50: 16.6 nM (active)
XF498
  GI50: 24 nM (active)
HL-60
  GI50: 8.47 nM (active)
EKVX
  GI50: 10.6 nM (active)
SNB-75
  GI50: 252 nM (active)
HCC 2998
  GI50: 11.3 nM (active)
LOX IMVI
  GI50: 6.03 nM (active)
TK-10
  GI50: 215 nM (active)
MOLT-4
  GI50: 9.16 nM (active)
U-251
  GI50: 11.6 nM (active)
SR
  GI50: 12.6 nM (active)
SK-MEL-28
  GI50: 12300 nM (inactive)
RPMI-8226
  GI50: 11.5 nM (active)
M19-MEL
  GI50: 22.5 nM (active)
OVCAR-4
  GI50: 1420 nM (inactive)
NCI-H226
  GI50: < 10 nM (active)
NCI-H522
  GI50: 4.28 nM (active)
KM-20L2
  GI50: 4.75 nM (active)
LXFL 529
  GI50: 8.11 nM (active)
SK-MEL-5
  GI50: 13.2 nM (active)
COLO 205
  GI50: 34.2 nM (active)
A498
  GI50: 40.3 nM (active)
CCRF-CEM
  GI50: 7.05 nM (active)
OVCAR-3
  GI50: 5.02 nM (active)
DLD-1
  GI50: 7.31 nM (active)
SNB-19
  GI50: 8.71 nM (active)
SNB-78
  GI50: 2.5 nM (active)
SF-539
  GI50: 5.15 nM (active)
UACC-257
  GI50: 58.6 nM (active)
SK-MEL-2
  GI50: 10.2 nM (active)
A549
  GI50: 81.3 nM (active)
DMS-114
  GI50: 7.75 nM (active)
Malme-3M
  GI50: 20 nM (active)
HCT-116
  GI50: 8.57 nM (active)
UO-31
  GI50: 19 nM (active)
DMS-273
  GI50: 2.98 nM (active)
HCT-15
  GI50: 444 nM
UACC-62
  GI50: 31.6 nM (active)
HOP-62
  GI50: 12.1 nM (active)

## Cc1ccc(C)c(NC(=O)C(=O)Nn2c(S)nc3ccccc3c2=O)c1
OVCAR-8
  GI50: > 100000 nM (inactive)
SF-268
  GI50: > 100000 nM (inactive)
K562
  GI50: > 100000 nM (inactive)
SN12C
  GI50: > 100000 nM (inactive)
786-0
  GI50: > 100000 nM (inactive)
M14
  GI50: > 100000 nM (inactive)
HOP-92
  GI50: > 100000 nM (inactive)
ACHN
  GI50: > 100000 nM (inactive)
KM12
  GI50: > 100000 nM (inactive)
NCI-H23
  GI50: > 100000 nM (inactive)
RXF 393
  GI50: > 100000 nM (inactive)
HT-29
  GI50: > 100000 nM (inactive)
SW-620
  GI50: > 100000 nM (inactive)
SF-295
  GI50: > 100000 nM (inactive)
RXF 631
  GI50: > 100000 nM (inactive)
NCI-H460
  GI50: > 100000 nM (inactive)
SK-OV-3
  GI50: > 100000 nM (inactive)
OVCAR-5
  GI50: > 100000 nM (inactive)
IGROV-1
  GI50: > 100000 nM (inactive)
HL-60
  GI50: > 100000 nM (inactive)
EKVX
  GI50: 71300 nM (inactive)
SNB-75
  GI50: > 100000 nM (inactive)
HCC 2998
  GI50: > 100000 nM (inactive)
LOX IMVI
  GI50: > 100000 nM (inactive)
TK-10
  GI50: > 100000 nM (inactive)
MOLT-4
  GI50: > 100000 nM (inactive)
U-251
  GI50: > 100000 nM (inactive)
SR
  GI50: > 100000 nM (inactive)
SK-MEL-28
  GI50: > 100000 nM (inactive)
RPMI-8226
  GI50: > 100000 nM (inactive)
OVCAR-4
  GI50: > 100000 nM (inactive)
NCI-H226
  GI50: > 100000 nM (inactive)
CAKI-1
  GI50: > 100000 nM (inactive)
NCI-H522
  GI50: > 100000 nM (inactive)
KM-20L2
  GI50: > 100000 nM (inactive)
LXFL 529
  GI50: > 100000 nM (inactive)
SK-MEL-5
  GI50: > 100000 nM (inactive)
COLO 205
  GI50: > 100000 nM (inactive)
A498
  GI50: > 100000 nM (inactive)
CCRF-CEM
  GI50: > 100000 nM (inactive)
DLD-1
  GI50: > 100000 nM (inactive)
SNB-19
  GI50: > 100000 nM (inactive)
SNB-78
  GI50: > 100000 nM (inactive)
SF-539
  GI50: > 100000 nM (inactive)
UACC-257
  GI50: > 100000 nM (inactive)
SK-MEL-2
  GI50: > 100000 nM (inactive)
HOP-18
  GI50: > 100000 nM (inactive)
A549
  GI50: > 100000 nM (inactive)
DMS-114
  GI50: > 100000 nM (inactive)
Malme-3M
  GI50: > 100000 nM (inactive)
HCT-116
  GI50: > 100000 nM (inactive)
UO-31
  GI50: > 100000 nM (inactive)
DMS-273
  GI50: > 100000 nM (inactive)
HCT-15
  GI50: > 100000 nM
UACC-62
  GI50: > 100000 nM (inactive)
HOP-62
  GI50: > 100000 nM (inactive)

## CCCCCCN(CCCCCC)C(=S)N/N=C(\C)c1ccccn1
OVCAR-8
  GI50: 815 nM (active)
SF-268
  GI50: 345 nM (active)
K562
  GI50: 105 nM (active)
SN12C
  GI50: 957 nM (active)
786-0
  GI50: 971 nM (active)
Hs-578T
  GI50: 1090 nM (active)
M14
  GI50: 760 nM (active)
HOP-92
  GI50: 906 nM (active)
ACHN
  GI50: 703 nM (active)
KM12
  GI50: 1050 nM (active)
NCI-H23
  GI50: 1240 nM (inactive)
RXF 393
  GI50: 973 nM (active)
MDA-N
  GI50: 1320 nM (inactive)
HT-29
  GI50: 1510 nM (inactive)
SW-620
  GI50: 718 nM (active)
SF-295
  GI50: 1530 nM (inactive)
MDA-MB-435
  GI50: 708 nM (active)
RXF 631
  GI50: 1020 nM (active)
NCI-H460
  GI50: 1090 nM (active)
NCI/ADR-RES
  GI50: 1370 nM (inactive)
SK-OV-3
  GI50: 1400 nM (inactive)
OVCAR-5
  GI50: 1630 nM (inactive)
IGROV-1
  GI50: 955 nM (active)
HL-60
  GI50: 76.7 nM (active)
EKVX
  GI50: 531 nM (active)
SNB-75
  GI50: 577 nM (active)
HCC 2998
  GI50: 1610 nM (inactive)
LOX IMVI
  GI50: 838 nM (active)
BT-549
  GI50: 1680 nM (inactive)
TK-10
  GI50: 993 nM (active)
MOLT-4
  GI50: 179 nM (active)
U-251
  GI50: 393 nM (active)
SR
  GI50: 436 nM (active)
SK-MEL-28
  GI50: 1040 nM (active)
RPMI-8226
  GI50: 117 nM (active)
OVCAR-4
  GI50: 457 nM (active)
NCI-H226
  GI50: 622 nM (active)
CAKI-1
  GI50: 836 nM (active)
NCI-H522
  GI50: 527 nM (active)
KM-20L2
  GI50: 673 nM (active)
LXFL 529
  GI50: 208 nM (active)
DU-145
  GI50: 1280 nM (inactive)
SK-MEL-5
  GI50: 1030 nM (active)
COLO 205
  GI50: 321 nM (active)
A498
  GI50: 1860 nM (inactive)
CCRF-CEM
  GI50: 161 nM (active)
T47D
  GI50: 269 nM (active)
OVCAR-3
  GI50: 506 nM (active)
DLD-1
  GI50: 1260 nM (inactive)
SNB-19
  GI50: 1310 nM (inactive)
SNB-78
  GI50: 711 nM (active)
SF-539
  GI50: 1090 nM (active)
PC-3
  GI50: 265 nM (active)
UACC-257
  GI50: 1600 nM (inactive)
SK-MEL-2
  GI50: 1060 nM (active)
A549
  GI50: 1520 nM (inactive)
DMS-114
  GI50: 571 nM (active)
Malme-3M
  GI50: 1340 nM (inactive)
MDA-MB-231
  GI50: 1150 nM (inactive)
HCT-116
  GI50: 1090 nM (active)
UO-31
  GI50: 344 nM (active)
DMS-273
  GI50: 1630 nM (inactive)
MCF7
  GI50: 1530 nM (inactive)
HCT-15
  GI50: 581 nM
UACC-62
  GI50: 1000 nM (active)
HOP-62
  GI50: 1210 nM (inactive)
